# Patent publication US6989371B1, “Bombesin analogs for treatment of cancer” (Dabur Research Foundation, priority 1996, dated 2006)
# Non-standard residues stand in square brackets, D forms with d. Residues, ends and D or L forms follow the SMILES beside them. Deg = CCC(N)(CC)C(=O)O
# Assays:
# Experiment in all cases: MTT cytotoxicity assay, 48 hours (Example 14)
# U87MG (Glioblastoma) = format: cell-based
# Description: (§1) The cytotoxic effect of peptide sequences SEQ ID NO: 9, SEQ ID NO: 10, SEQ ID NO: 11 and SEQ ID NO: 12, were studied by MTT assay which is based on the principle of uptake of MTT[3-[4,5-dimethylthiazol-2-yl]-2,5-diphenyl tetrazolium bromide], a tetrazolium salt by the metabolically active cells where it is metabolized by active mitochondria into a blue colored formazan product which can be read spectrophotometrically. Tumor cells KB (oral squamous). HuTu80 (Stomach), PTC and SW620 (colon), U87MG (Glioblastoma), HBL 100. (Breast), HeP2 (laryngeal) and L132 (Lung) were incubated with the peptide analogs for 48 hours at 37° C. in a 96-well culture plate, followed by the addition of 100 μl MTT and further incubation of 1 hour. The formazon crystals formed inside the cells were dissolved with a detergent comprising 10% Sodium dodecyl sulfate and 0.01 N HCl and optical density read on a multiscan ELISA reader. The optical density was directly proportional to the number of proliferating and metabolically active cells.
# HeP2 (laryngeal) = format: cell-based
# Description: as §1
# L132 (Lung) = format: cell-based
# Description: as §1
# SW620 (colon) = format: cell-based, human
# Description: as §1
# KB (oral squamous) = format: cell-based, human
# Description: as §1
# PTC (colon) = format: cell-based, human
# Description: as §1
# HuTu80 (Stomach) = format: cell-based, human
# Description: as §1
# HBL 100 (Breast) = format: cell-based, human
# Description: as §1
smiles,measurement,setting,value
"CCC(CC)(NC(=O)[C@H](Cc1c[nH]c2ccccc12)NC(=O)[C@H](CCC(N)=O)NC(=O)[C@H](N)Cc1ccccc1)C(=O)N[C@H](C(=O)NCC(=O)N[C@@H](Cc1c[nH]cn1)C(=O)N[C@@H](CC(C)C)C(N)=O)C(C)C [SEQ ID: 9, D-Phe-Gln-Trp-Deg-Val-Gly-His-Leu-NH2] (H-[dF]QW[Deg]VGHL-NH2; N-terminus assumed)",Percentage cytotoxicity,U87MG (Glioblastoma); 10 pM,0.0 ± 0.0%
same,Percentage cytotoxicity,U87MG (Glioblastoma); 100 pM,11.9 ± 4.1%
same,Percentage cytotoxicity,U87MG (Glioblastoma); 1 nM,21.8 ± 0.1%
same,Percentage cytotoxicity,U87MG (Glioblastoma); 10 nM,20.0 ± 0.0%
same,Percentage cytotoxicity,U87MG (Glioblastoma); 100 nM,21.4 ± 0.1%
same,Percentage cytotoxicity,U87MG (Glioblastoma); 1 μM,10.0 ± 0.0%
same,Percentage cytotoxicity,"HeP2 (laryngeal); HeP2, 10 pM",0.0 ± 0.0%
same,Percentage cytotoxicity,"HeP2 (laryngeal); HeP2, 100 pM",14.6 ± 0.6%
same,Percentage cytotoxicity,"HeP2 (laryngeal); HeP2, 1 nM",21.3 ± 2.2%
same,Percentage cytotoxicity,"HeP2 (laryngeal); HeP2, 10 nM",28.5 ± 3.1%
same,Percentage cytotoxicity,"HeP2 (laryngeal); HeP2, 100 nM",17.8 ± 0.3%
same,Percentage cytotoxicity,"HeP2 (laryngeal); HeP2, 1 μM",21.6 ± 1.8%
same,Percentage cytotoxicity,"L132 (Lung); L132, 10 pM",0.0 ± 0.0%
same,Percentage cytotoxicity,"L132 (Lung); L132, 100 pM",22.4 ± 0.8%
same,Percentage cytotoxicity,"L132 (Lung); L132, 1 nM",30.5 ± 4.1%
same,Percentage cytotoxicity,"L132 (Lung); L132, 10 nM",27.2 ± 3.1%
same,Percentage cytotoxicity,"L132 (Lung); L132, 100 nM",25.9 ± 2.6%
same,Percentage cytotoxicity,"L132 (Lung); L132, 1 μM",18.3 ± 2.9%
same,Percentage cytotoxicity,"SW620 (colon); SW620, 10 pM",15.1 ± 0.3%
same,Percentage cytotoxicity,"SW620 (colon); SW620, 100 pM",28.9 ± 0.2%
same,Percentage cytotoxicity,"SW620 (colon); SW620, 1 nM",30.8 ± 0.6%
same,Percentage cytotoxicity,"SW620 (colon); SW620, 10 nM",33.2 ± 2.9%
same,Percentage cytotoxicity,"SW620 (colon); SW620, 100 nM",25.8 ± 2.8%
same,Percentage cytotoxicity,"SW620 (colon); SW620, 1 μM",21.6 ± 2.1%
same,Percentage cytotoxicity,KB (oral squamous); 10 pM,20.6 ± 4.1%
same,Percentage cytotoxicity,KB (oral squamous); 100 pM,26.9 ± 2.9%
same,Percentage cytotoxicity,KB (oral squamous); 1 nM,32.6 ± 3.7%
same,Percentage cytotoxicity,KB (oral squamous); 10 nM,23.0 ± 2.1%
same,Percentage cytotoxicity,KB (oral squamous); 100 nM,20.8 ± 1.7%
same,Percentage cytotoxicity,KB (oral squamous); 1 μM,10.4 ± 1.6%
same,Percentage cytotoxicity,PTC (colon); 10 pM,22.4 ± 2.2%
same,Percentage cytotoxicity,PTC (colon); 100 pM,24.5 ± 3.9%
same,Percentage cytotoxicity,PTC (colon); 1 nM,25.6 ± 5.1%
same,Percentage cytotoxicity,PTC (colon); 10 nM,26.8 ± 3.8%
same,Percentage cytotoxicity,PTC (colon); 100 nM,19.5 ± 4.1%
same,Percentage cytotoxicity,PTC (colon); 1 μM,10.3 ± 0.9%
same,Percentage cytotoxicity,"HuTu80 (Stomach); HuTu80, 10 pM",19.5 ± 0.4%
same,Percentage cytotoxicity,"HuTu80 (Stomach); HuTu80, 100 pM",23.8 ± 2.8%
same,Percentage cytotoxicity,"HuTu80 (Stomach); HuTu80, 1 nM",28.0 ± 1.8%
same,Percentage cytotoxicity,"HuTu80 (Stomach); HuTu80, 10 nM",23.5 ± 2.9%
same,Percentage cytotoxicity,"HuTu80 (Stomach); HuTu80, 100 nM",13.5 ± 2.1%
same,Percentage cytotoxicity,"HuTu80 (Stomach); HuTu80, 1 μM",14.2 ± 0.6%
same,Percentage cytotoxicity,"HBL 100 (Breast); HBL100, 10 pM",17.2 ± 0.1%
same,Percentage cytotoxicity,"HBL 100 (Breast); HBL100, 100 pM",28.6 ± 2.2%
same,Percentage cytotoxicity,"HBL 100 (Breast); HBL100, 1 nM",34.1 ± 1.8%
same,Percentage cytotoxicity,"HBL 100 (Breast); HBL100, 10 nM",28.1 ± 0.6%
same,Percentage cytotoxicity,"HBL 100 (Breast); HBL100, 100 nM",22.4 ± 1.7%
same,Percentage cytotoxicity,"HBL 100 (Breast); HBL100, 1 μM",17.2 ± 0.4%
